Consider 22 molecules from patent US8148422B2, “Sulfonamides as TRPM8 modulators” (Janssen Pharmaceutica, NV, priority 2008, dated 2012).

The assay has as its target T1, canine TRPM8 (Canis lupus familiaris, UniProt Q1A7N1).
T1 construct: expressed in transfected cells
Kind of assay: In vitro canine TRPM8 functional assay (Ca2+-sensitive fluorescent dye, FLIPR or FDSS, icilin challenge). It is filed as cell-based. Conditions: HEK293 cells stably expressing canine TRPM8; for inhibition at 0.2 µM: 0.2 μM compound, icilin challenge; for IC50: icilin at approx. 80% maximal response, eight-point dose-response, single determinations unless otherwise noted, read-out: IC50. The procedure: The functional activity of compounds of the formula (I) was determined by measuring changes in intracellular calcium concentration using a Ca^2+-sensitive fluorescent dye. The changes in fluorescent signal were monitored by a fluorescence plate reader, either a FLIPR™ (Molecular Devices) or FDSS (Hamamatsu).
At 24 hrs prior to assay, HEK293 cells stably expressing canine TRPM8 were seeded in culture medium in black wall, clear-base poly-D-lysine coated 384-well plates (BD Biosciences, NJ, USA) and grown overnight in 5% CO2 at 37° C. On assay day, growth media was removed and cells were loaded with Calcium 3 Dye (Molecular Devices) for 35 min at 37° C., under 5% CO2 and then for 25 min at room temperature and atmosphere. Subsequently, cells were tested for agonist-induced increases in intracellular Ca^2+ levels using FLIPR™ or FDSS. Cells were challenged with a compound of the Formula (I) (at varying concentrations) and intracellular Ca^2+ was measured for 5 min prior to the addition of icilin to all wells to achieve a final concentration that produces approximately an 80% maximal response. EC50 or IC50 values for compounds of the present invention were determined from eight-point dose-response studies. Curves were generated using the average of quadruplicate wells for each data point.

The structures appear in SMILES notation.

T1 sequence (Q1A7N1 1-1104): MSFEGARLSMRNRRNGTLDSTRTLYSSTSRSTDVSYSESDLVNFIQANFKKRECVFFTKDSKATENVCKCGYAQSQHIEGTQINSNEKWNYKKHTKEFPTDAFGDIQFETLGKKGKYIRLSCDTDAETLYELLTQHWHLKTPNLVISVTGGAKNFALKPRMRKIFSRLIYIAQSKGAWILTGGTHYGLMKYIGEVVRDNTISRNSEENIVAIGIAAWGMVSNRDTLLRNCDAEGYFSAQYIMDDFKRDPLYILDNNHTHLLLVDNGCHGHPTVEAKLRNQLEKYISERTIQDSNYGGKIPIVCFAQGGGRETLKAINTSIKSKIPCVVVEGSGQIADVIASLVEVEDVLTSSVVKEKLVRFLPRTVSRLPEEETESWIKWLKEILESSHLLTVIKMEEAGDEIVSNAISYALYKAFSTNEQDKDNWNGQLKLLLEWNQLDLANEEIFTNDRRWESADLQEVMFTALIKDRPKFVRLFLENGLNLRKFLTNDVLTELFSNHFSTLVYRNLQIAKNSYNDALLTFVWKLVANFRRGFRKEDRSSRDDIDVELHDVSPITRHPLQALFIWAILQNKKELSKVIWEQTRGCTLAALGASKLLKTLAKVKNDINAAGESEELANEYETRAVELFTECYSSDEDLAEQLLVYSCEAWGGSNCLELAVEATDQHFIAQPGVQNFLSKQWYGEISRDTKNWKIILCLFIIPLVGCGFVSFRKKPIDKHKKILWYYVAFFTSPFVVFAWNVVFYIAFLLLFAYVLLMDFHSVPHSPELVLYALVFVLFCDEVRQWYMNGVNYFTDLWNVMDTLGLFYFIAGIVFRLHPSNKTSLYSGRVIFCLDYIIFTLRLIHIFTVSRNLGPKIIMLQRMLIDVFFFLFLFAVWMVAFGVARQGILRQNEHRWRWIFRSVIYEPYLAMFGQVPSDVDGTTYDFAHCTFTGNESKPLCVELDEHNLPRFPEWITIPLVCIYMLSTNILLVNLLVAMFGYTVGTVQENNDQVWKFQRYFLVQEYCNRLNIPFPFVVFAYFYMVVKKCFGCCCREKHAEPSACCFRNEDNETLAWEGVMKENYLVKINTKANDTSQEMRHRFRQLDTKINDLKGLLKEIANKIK

Take `Cc1c(N(Cc2ccc(OC(F)(F)F)cc2)S(=O)(=O)CCN2CCC(F)(F)CC2)sc2ccccc12` [Cpd 42, N-(3-Methylbenzo[b]thiophen-2-yl)-N-(4-trifluoromethoxy-benzyl)-2-(4,4-difluoropiperidin-1-yl)ethylsulfonamide]: the inhibition at 0.2 µM was determined as 98% and the IC50 worked out at 0.017 µM. On the same counts, the results for `Cc1c(N(Cc2ccc(OC(F)(F)F)cc2)S(=O)(=O)CCN2CCCC(F)(F)C2)sc2ccccc12` [Cpd 43, N-(3-Methylbenzo[b]thiophen-2-yl)-N-(4-trifluoromethoxy-benzyl)-2-(3,3-difluoropiperidin-1-yl)ethylsulfonamide] are 101% and 0.005 µM.

For `Cc1c(N(Cc2ccc(OC(F)(F)F)cc2)S(=O)(=O)CCN2CCC(C(F)(F)F)CC2)sc2ccccc12` [Cpd 44, N-(3-Methylbenzo[b]thiophen-2-yl)-N-(4-trifluoromethoxy-benzyl)-2-(4-trifluoromethylpiperidin-1-yl)ethylsulfonamide], the inhibition at 0.2 µM was 99% and the IC50 is 0.045 µM.

With `Cc1c(N(Cc2ccc(OC(F)(F)F)cc2)S(=O)(=O)CCN2CCC(F)(F)C2)sc2ccccc12` [Cpd 45, N-(3-Methylbenzo[b]thiophen-2-yl)-N-(4-trifluoromethoxy-benzyl)-2-(3,3-difluoropyrrolidin-1-yl)ethylsulfonamide], the inhibition at 0.2 µM was found to be 99% and the IC50 worked out at 0.009 µM. On the same counts, the results for `Cc1c(N(Cc2ccc(OC(F)(F)F)cc2)S(=O)(=O)CCN2CC(F)(F)C2)sc2ccccc12` [Cpd 46, N-(3-Methylbenzo[b]thiophen-2-yl)-N-(4-trifluoromethoxy-benzyl)-2-(3,3-ditluoroazetidin-1-yl)ethylsulfonamide] are 101% and 0.004 µM. On the same counts, the results for `CCOC(=O)CNCCS(=O)(=O)N(Cc1ccc(OC(F)(F)F)cc1)c1sc2ccccc2c1C` [Cpd 47, N-(3-Methylbenzo[b]thiophen-2-yl)-N-(4-trifluoromethoxy-benzyl)-2-[(carboethoxymethyl)amino]ethylsulfonamide] are 83% and 0.051 µM. Regarding `CNCCS(=O)(=O)N(Cc1ccc(OC(F)(F)F)cc1)c1sc2ccccc2c1C` [Cpd 48, N-(3-Methylbenzo[b]thiophen-2-yl)-N-(4-trifluoromethoxy-benzyl)-2-(methylamino)ethylsulfonamide], the inhibition at 0.2 µM was determined as 24%. Consider `Cc1c(N(Cc2ccc(OC(F)(F)F)cc2)S(=O)(=O)CCN(C)C)sc2ccccc12` [Cpd 49, N-(3-Methylbenzo[b]thiophen-2-yl)-N-(4-trifluoromethoxy-benzyl)-2-(dimethylamino)ethylsulfonamide], for which the inhibition at 0.2 µM worked out at 65%.

In the case of `CCCN(CCC)CCS(=O)(=O)N(Cc1ccc(OC(F)(F)F)cc1)c1ccc2ccccc2c1` [Cpd 50, N-(Naphth-2-yl)-N-(4-trifluoromethoxy-benzyl)-2-(di-propylamino)ethylsulfonamide], the inhibition at 0.2 µM was found to be 62%. Regarding `O=S(=O)(CCN1CCOCC1)N(Cc1ccc(OC(F)(F)F)cc1)c1ccc2ccccc2c1` [Cpd 51, N-(Naphth-2-yl)-N-(4-trifluoromethoxy-benzyl)-2-(morpholin-4-yl)ethylsulfonamide], the inhibition at 0.2 µM was found to be 87% and the IC50 was found to be 0.028 µM.

With `O=S(=O)(CCN1CCSCC1)N(Cc1ccc(OC(F)(F)F)cc1)c1ccc2ccccc2c1` [Cpd 52, N-(Naphth-2-yl)-N-(4-trifluoromethoxy-benzyl)-2-(thiomorpholin-4-yl)ethylsulfonamide], the inhibition at 0.2 µM was 87% and the IC50 stood at 0.042 µM.

For `O=S(=O)(CCN1CCC(c2ccccc2)CC1)N(Cc1ccc(OC(F)(F)F)cc1)c1ccc2ccccc2c1` [Cpd 53, N-(Naphth-2-yl)-N-(4-trifluoromethoxy-benzyl)-2-(4-phenylpiperidin-1-yl)ethylsulfonamide], the inhibition at 0.2 µM was determined as 58%.

As for `O=S(=O)(CCN1CCc2ccccc2C1)N(Cc1ccc(OC(F)(F)F)cc1)c1ccc2ccccc2c1` [Cpd 54, N-(Naphth-2-yl)-N-(4-trifluoromethoxy-benzyl)-2-(1,2,3,4-tetrahydroisoquinolin-2-yl)ethylsulfonamide], the inhibition at 0.2 µM turned out to be 86% and the concentration for half-maximal inhibition (IC50) is 0.051 µM. `O=S(=O)(CCN1CC(F)(F)C1)N(Cc1ccc(OC(F)(F)F)cc1)c1ccc2ccccc2c1` [Cpd 55, N-(Naphth-2-yl)-N-(4-trifluoromethoxy-benzyl)-2-(3,3-difluoroazetidin-1-yl)ethylsulfonamide]: the inhibition at 0.2 µM amounted to 84% and the IC50 was 0.109 µM. For the molecule `CCCCN(CCCC)CCS(=O)(=O)N(Cc1ccc(OC(F)(F)F)cc1)c1ccc2ccccc2c1` [Cpd 56, N-(Naphth-2-yl)-N-(4-trifluoromethoxy-benzyl)-2-(dibutylamino)ethylsulfonamide], the inhibition at 0.2 µM amounted to 47%. Take `CN(CCS(=O)(=O)N(Cc1ccc(OC(F)(F)F)cc1)c1ccc2ccccc2c1)Cc1ccccc1` [Cpd 57, N-(Naphth-2-yl)-N-(4-trifluoromethoxy-benzyl)-2-(benzyl-methylamino)ethylsulfonamide]: the inhibition at 0.2 µM was 89% and the IC50 turned out to be 0.052 µM.

Regarding `CC(=O)N1CCN(CCS(=O)(=O)N(Cc2ccc(OC(F)(F)F)cc2)c2ccc3ccccc3c2)CC1` [Cpd 58, N-(Naphth-2-yl)-N-(4-trifluoromethoxy-benzyl)-2-(4-acetylpiperazin-1-yl)ethylsulfonamide], the inhibition at 0.2 µM came out at 67%. For `Cc1c(N(Cc2ccc(OC(F)(F)F)cc2)S(=O)(=O)CCN(C(C)C)C(C)C)sc2ccccc12` [Cpd 59, N-(3-Methylbenzo[b]thiophen-2-yl)-N-(4-trifluoromethoxy-benzyl)-2-(di-isopropylamino)ethylsulfonamide], the inhibition at 0.2 µM worked out at 100% and the IC50 came out at 0.008 µM.

Regarding `Cc1c(N(Cc2ccc(OC(F)(F)F)cc2)S(=O)(=O)CCNCC(F)(F)F)sc2ccccc12` [Cpd 60, N-(3-Methylbenzo[b]thiophen-2-yl)-N-(4-trifluoromethoxy-benzyl)-2-(2,2,2-trifluoroethylamino)ethylsulfonamide], the inhibition at 0.2 µM worked out at 100% and the IC50 amounted to 0.014 µM.

Regarding `CN(CCS(=O)(=O)N(Cc1ccc(OC(F)(F)F)cc1)c1sc2ccccc2c1Br)Cc1ccccc1` [Cpd 61, N-(3-Bromobenzo[b]thiophen-2-yl)-N-(4-trifluoromethoxy-benzyl)-2-(benzyl-methylamino)ethylsulfonamide], the inhibition at 0.2 µM is 102% and the IC50 stood at 0.028 µM. Turning to `CCCCN(CCCC)CCS(=O)(=O)N(Cc1ccc(OC(F)(F)F)cc1)c1sc2ccccc2c1Br` [Cpd 62, N-(3-Bromobenzo[b]thiophen-2-yl)-N-(4-trifluoromethoxy-benzyl)-2-(di-n-butylamino)ethylsulfonamide], the inhibition at 0.2 µM came out at 96% and the IC50 was 0.038 µM. In the case of `CC(C)CN(CCS(=O)(=O)N(Cc1ccc(OC(F)(F)F)cc1)c1sc2ccccc2c1Br)CC(C)C` [Cpd 63, N-(3-Bromobenzo[b]thiophen-2-yl)-N-(4-trifluoromethoxy-benzyl)-2-(di-iso-butylamino)ethylsulfonamide], the inhibition at 0.2 µM was 101% and the IC50 came to 0.006 µM.

Broadly, the inhibition is the drop in the measured response relative to a control, in per cent. For orientation: IC50 means the concentration needed to halve the response being measured.
